Patent US6894068B2, “Substituted benzimidazoles as non-nucleoside inhibitors of reverse transcriptase” (The United States of America as represented by the …, priority 1997, dated 2005)
Several values for one entry are separate records, joined by “and”; a condition that tells them apart may be missing. Identical values can stand only once. Like-named read-outs stand apart in the source and are kept apart here.

What was measured:
[1] = system: HIV-1 isolate 4xAZT/Y181C; test: Cytopathic cell killing assay, MT-4 cells, isolate 4xAZT/Y181C; type: cell-based; conditions: Human immunodeficiency virus 1, MT4, read-out: EC50, isolate 4XAZT/Y181C
Excerpt: (§1) The various HIV isolates tested in the Figures are those corresponding to wild-type virus (NL4-3) and the other strains listed by their RT mutations. The three 4×AZT isolates included in the Figures represent AZT drug-resistant variants. For example, the 4×AZT/L100I isolate has five mutations: four mutations confer increased resistance to AZT, and the other mutation is located within the NNRTI binding pocket. TZB and nevir. (nevirapine) are two well-known NNRTIs, included in this experiment for comparison purposes.
(§2) In this Example, the antiviral and cellular toxicity of NNRTIs was investigated, using the cytopathic cell killing assay described by Yang (Yang et al., “Characteristics of a Group of Non-nucleoside Reverse Transcriptase Inhibitors with Structural Diversity and Potent Anti-Human Immunodeficiency Virus Activity,” Leukemia 9:S75-S85 [1995]). Briefly, in this method cells (e.g., the CEM-SS cell line, available from the NIAID AIDS Research and Reference Program [ARRRP]) were seeded at a density of 5×10^3 cells/well, into the wells of a 96-well microtiter plate. The cells were then infected with HIV virus (either mutant or WT), at a multiplicity of infection (MOI) previously determined to provide complete cell killing by 6 days of culture post-infection (e.g., MOI of 0.01-0.05). Each of the HIV isolates was pre-titered to induce equivalent levels of infection based on cell killing or virus production, prior to their use in these assays. A range of test compound concentrations was added to the wells in triplicate (e.g., serial half-log dilutions) to evaluate inhibition of HIV infection. Controls for each assay included drug controls (drug colorimetric control wells), drug cytotoxicity control wells (cells with drug), virus control wells (cells with virus), and cell viability controls (cells only). Positive control drugs (e.g. AZT and ddC) were also run in parallel.
(§3) After six days of incubation at 37° C., cell viability was determined spectrophotometrically at 450 nm for each well, using the metabolic reduction of XTT to a soluble colored formazan. (See, Gartner and Popovic, “Virus Isolation and Production, in Aldovini and Walker (eds.), Techniques in HIV Research, Stockton Press, NY, pp. […] [1991]; and Nara and Fischinger, “Quantitative Infectivity Assay for HIV-1 and HIV-2, ” Nature 332:469-470 [1988]).
(§4) The in vitro therapeutic index (TI50) was defined as the fold-difference between the EC50 and IC50. The results for the various compounds are included in FIGS. 8 and 19.

[2] = system: HIV-1 WT virus (NL4-3); test: microbe, parasite or virus in culture; type: cell-based; conditions: for EC50: read-out: EC50
Procedure: Evaluation of these compounds for the inhibition of HIV-1 was determined as the fifty percent cell culture inhibitory concentration (CIC50) in CEMSS cell culture with WT virus (NL4-3).
as §2, §3, §4

[3] = target: HIV-1 WT RT (Human immunodeficiency virus type 1 group M subtype B, UniProt P03366); test: biochemical; type: biochemical; conditions: for RT inhibition, result in words: WT RT
[4] = system: HIV-1 isolate K103N; test: Cytopathic cell killing assay, MT-4 cells, isolate K103N; type: cell-based; conditions: values in μM
Excerpt: as §1, §2, §3, §4

[5] = system: HIV-1 NL4-3 (WT); test: Cytopathic cell killing assay, MT-4 cells, isolate NL4-3 (WT); type: cell-based
Excerpt: as §1, §2, §3, §4

[6] = system: HIV-1 isolate Y181C; test: Cytopathic cell killing assay, MT-4 cells, isolate Y181C; type: cell-based
Excerpt: as §1, §2, §3, §4

[7] = system: HIV-1 isolate K101E; test: Cytopathic cell killing assay, MT-4 cells, isolate K101E; type: cell-based; conditions: Table 10; values in μM; read-out: EC50, isolate K101E
Excerpt: as §1, §2, §3, §4

[8] = system: HIV-1 isolate V108I; test: Cytopathic cell killing assay, MT-4 cells, isolate V108I; type: cell-based; conditions: values in μM
Excerpt: as §1, §2, §3, §4

[9] = system: HIV-1 isolate Y188C; test: Cytopathic cell killing assay, MT-4 cells, isolate Y188C; type: cell-based; conditions: values in μM
Excerpt: as §1, §2, §3, §4

[10] = system: HIV-1 isolate L100I; test: Cytopathic cell killing assay, MT-4 cells, isolate L100I; type: cell-based; conditions: Table 10; values in μM; read-out: EC50, isolate L100I
Excerpt: as §1, §2, §3, §4

[11] = system: WT and HIV-1 variants containing amino acid substitutions in RT; type: cell-based; conditions: cytopathic cell killing assay, NNRTI-resistant HIV isolates
Excerpt: In these Tables, antiviral data are reported as the quantity of drug in μM required to reduce cell killing or virus production by 50% (EC50). The various HIV isolates tested in the Figures are those corresponding to wild-type virus (NL4-3) and the other strains listed by their RT mutations. The three 4×AZT isolates included in the Figures represent AZT drug-resistant variants.
Briefly, in this method cells (e.g., the CEM-SS cell line, available from the NIAID AIDS Research and Reference Program [ARRRP]) were seeded at a density of 5×10^3 cells/well, into the wells of a 96-well microtiter plate. The cells were then infected with HIV virus (either mutant or WT), at a multiplicity of infection (MOI) previously determined to provide complete cell killing by 6 days of culture post-infection (e.g., MOI of 0.01-0.05). Each of the HIV isolates was pre-titered to induce equivalent levels of infection based on cell killing or virus production, prior to their use in these assays. A range of test compound concentrations was added to the wells in triplicate (e.g., serial half-log dilutions) to evaluate inhibition of HIV infection. Controls for each assay included drug controls (drug colorimetric control wells), drug cytotoxicity control wells (cells with drug), virus control wells (cells with virus), and cell viability controls (cells only). Positive control drugs (e.g. AZT and ddC) were also run in parallel.
as §3
Antiviral and toxicity data were reported as the quantity of drug required to inhibit 50% of virus-induced cell killing or virus production (EC50), and the quantity of drug required to […] (IC50). The in vitro therapeutic index (TI50) was defined as the fold-difference between the EC50 and IC50.

[12] = Human immunodeficiency virus 1, NL43, CEM-SS, Table 11, CEMSS/NL4-3, NRVC = no reduction in viral CPE
[13] = Human immunodeficiency virus 1, MT4, read-out: EC50, isolate Y181C, Table 10, values in μM
[14] = Human immunodeficiency virus 1, NL43, CEM-SS, Table 7, drug concentration required to reduce cell killing or virus production by 50%, WT
[15] = Human immunodeficiency virus 1, MT4, read-out: EC50, isolate V108I, Table 10
[16] = Human immunodeficiency virus 1, MT4, read-out: EC50, isolate Y188C, Table 10

Row | SMILES | EC50 [2, 12] | RT inhibition, result in words [3] | melting point | EC50 [6, 13] | EC50 [2, 14] | EC50 [8, 15] | EC50 [9, 16] | other results
1 | Fc1cccc(F)c1Cn1c(-c2c(F)cccc2F)nc2ccccc21 [Compound 26, 1-(2,6-difluorobenzyl)-2-(2,6-difluorophenyl)benzimidazole] | 1700 nM | four-fold increase in inhibitory activity |  |  |  |  |  | EC50 [1]: > 20000 nM; inhibition at 1 µM ([3]; Table 5, 1 μM drug, WT HIV-1 RT, average of two experiments done in triplicates, read-out: % inhibn (1 μM)): 50%
2 | Cc1ccccc1-c1nc2ccccc2n1Cc1c(F)cccc1F [Compound 36, 1-(2,6-difluorobenzyl)-2-(2-methylphenyl)benzimidazole] |  | two-fold decrease in RT inhibition | 139 °C |  |  |  |  | 
3 | [N-]=[N+]=NCc1cccc2c1nc(-c1c(F)cccc1F)n2Cc1c(F)cccc1F [Compound 70, 1-(2,6-difluorobenzyl)-2-(2,6-difluorophenyl)benzimidazol-4-yl-azidomethyl] |  |  |  |  |  |  |  | EC50 ([4]; Table 10, read-out: EC50, isolate K103N): 1.48 µM; EC50 ([5]; Table 10, values in μM, read-out: EC50, isolate NL4-3 (WT)): 0.045 µM; EC50 ([6]; Table 10, values in μM, read-out: EC50, isolate Y181C): 0.82 µM; EC50 [7]: 0.6 µM; EC50 ([2]; Table 11, CEMSS/NL4-3, NRVC = no reduction in viral CPE): 45 nM; EC50 ([8]; Table 10, read-out: EC50, isolate V108I): 0.026 µM; EC50 ([9]; Table 10, read-out: EC50, isolate Y188C): 0.22 µM; EC50 [10]: 0.06 µM
4 | Fc1cccc(F)c1Cn1c(-c2c(F)cccc2F)nc2c(Br)cccc21 [Compound 3400, 4-bromo-1-(2,6-difluorobenzyl)-2-(2,6-difluorophenyl)benzimidazole] |  |  | 147 to 148 °C | 10.7 µM | 370 nM | 4.2 µM | 3.7 µM | 
5 | Fc1cccc(F)c1Cn1c(-c2c(F)cccc2F)nc2c(Cl)cccc21 [Compound 3500, 4-chloro-1-(2,6-difluorobenzyl)-2-(2,6-difluorophenyl)benzimidazole] | 440 nM |  | 163 to 164 °C and 163 °C | 8.4 µM | 440 nM | 3.2 µM | 3.4 µM | EC50 ([4]; Human immunodeficiency virus 1, MT4, read-out: EC50, isolate K103N, Table 10): 10.2 µM; EC50 ([5]; Human immunodeficiency virus 1, NL43, MT4, Table 8, MT-4 cells, read-out: EC50, isolate NL4-3): 0.4 µM; EC50 ([6]; Human immunodeficiency virus 1, MT4, read-out: EC50, isolate Y181C, Table 8, MT-4 cells): 7.3 µM; cross-resistance profile, result in words [11]: inhibit HIV-1 better than TZB; inhibitory potency against HIV-1 (CIC50), result in words ([2]; CEMSS cell culture, WT virus (NL4-3), relative to parent compounds 1 and 2): modest potency-enhancing effect
